Test results taken from patent US11622970B2, “BCL-2 inhibitors and their use as pharmaceuticals” (PRELUDE THERAPEUTICS INCORPORATED, priority 2020, dated 2023).

The compounds below were run against BCL-2 recombinant protein (Homo sapiens, UniProt P10415) (assay: Cell free Bcl-2:Bak affinity assay (Bcl-2 Bak), HTRF competition of FAM-Bak peptide). Conditions: 10-concentration IC50 mode, 4 nM BCL-2 recombinant protein, 100 nM FAM-Bak, read-out: potency (IC50).
Assay type: binding
Summary of the method: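 Compounds in 10-point 3-fold dilution preincubated 10 min at RT with 4 nM GST-BCL-2 (20 mM K phosphate pH 7.5, 50 mM NaCl, 1 mM EDTA, 0.005% Triton X-100), then 100 nM FAM-Bak 10 min, anti-GST-Tb added, 60 min RT dark. HTRF read; % inhibition vs DMSO and positive control, IC50 from curve fit.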

Sequence of BCL-2 recombinant protein (P10415 whole entry): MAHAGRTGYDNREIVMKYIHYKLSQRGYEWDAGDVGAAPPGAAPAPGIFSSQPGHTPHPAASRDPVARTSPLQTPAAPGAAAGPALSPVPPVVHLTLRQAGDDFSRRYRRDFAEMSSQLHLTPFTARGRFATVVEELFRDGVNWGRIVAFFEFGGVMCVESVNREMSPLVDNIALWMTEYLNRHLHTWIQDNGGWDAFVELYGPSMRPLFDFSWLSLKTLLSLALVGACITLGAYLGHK

Row | IC50 [nM] | Compound
1 | 100 to 1000 | CCOc1c([N+](=O)[O-])cc(C(=O)NS(=O)(=O)c2ccc(N3CCN(CC4=C(c5ccc(Cl)cc5)CC(C)(C)CC4)CC3)cc2Oc2cnc3[nH]ccc3c2)c(Cl)c1C [Example 102, 2-chloro-N-[4-[4-[[2-(4-chlorophenyl)-4,4-dimethylcyclohexen-1-yl]methyl]piperazin-1-yl]-2-(1H-pyrrolo[2,3-b]pyridin-5-yloxy)phenyl]sulfonyl-4-ethoxy-3-methyl-5-nitrobenzamide]
2 | 10 to 100 | Cc1c(Cl)c(C(=O)NS(=O)(=O)c2ccc(N3CCN(CC4=C(c5ccc(Cl)cc5)CC(C)(C)CC4)CC3)cc2Oc2cnc3[nH]ccc3c2)cc([N+](=O)[O-])c1OCC1COC1 [Example 103, 2-chloro-N-[4-[4-[[2-(4-chlorophenyl)-4,4-dimethylcyclohexen-1-yl]methyl]piperazin-1-yl]-2-(1H-pyrrolo[2,3-b]pyridin-5-yloxy)phenyl]sulfonyl-3-methyl-5-nitro-4-(oxetan-3-ylmethoxy)benzamide]
3 | < 10 | Cc1c(Cl)c(C(=O)NS(=O)(=O)c2ccc(N3CCN(CC4=C(c5ccc(Cl)cc5)CC(C)(C)CC4)CC3)cc2Oc2cnc3[nH]ccc3c2)cc([N+](=O)[O-])c1OCC1CCOC1 (stereo not shown) [Example 106, 2-chloro-N-[4-[4-[[2-(4-chlorophenyl)-4,4-dimethylcyclohexen-1-yl]methyl]piperazin-1-yl]-2-(1H-pyrrolo[2,3-b]pyridin-5-yloxy)phenyl]sulfonyl-3-methyl-5-nitro-4-(oxolan-3-ylmethoxy)benzamide]
4 | < 10 | Cc1c(Cl)c(C(=O)NS(=O)(=O)c2ccc(N3CCN(CC4=C(c5ccc(Cl)cc5)CC(C)(C)CC4)CC3)cc2Oc2cnc3[nH]ccc3c2)cc([N+](=O)[O-])c1OCC1CCCO1 (stereo not shown) [Example 107, 2-chloro-N-[4-[4-[[2-(4-chlorophenyl)-4,4-dimethylcyclohexen-1-yl]methyl]piperazin-1-yl]-2-(1H-pyrrolo[2,3-b]pyridin-5-yloxy)phenyl]sulfonyl-3-methyl-5-nitro-4-(oxolan-2-ylmethoxy)benzamide]
